Assay results from patent US20120129897A1, “BIS HETEROARYL INHIBITORS OF PRO-MATRIX METALLOPROTEINASE ACTIVATION” (priority 2010, published 2012).

Target: T1, MMP9 mediated gelatinase activity (Rattus norvegicus, UniProt P50282)
T1 construct: from tissue; host or cells: frozen liver sections, female Lewis rats
Experiment: In situ zymography of gelatinase activity in livers of SCW-induced rats dosed with compound
Type: in vivo
Conditions: for Intensity (RLU × 10^6), Mean / Intensity (RLU × 10^6), Rat 1 / Intensity (RLU × 10^6), Rat 2 / Intensity (RLU × 10^6), Rat 3: Day 25-28, liver
Text: In situ zymography provides an alternative approach to assess active MMP9 in tissues (Frederiks). Tissue sections are overlain with fluorescene-conjugated gelatin wherein the conjugation is sufficiently dense to cause the fluorescene to be dye-quenched (DQ). Proteolytic degradation of the DQ-gelatin releases the fluorescene from the quenching effect giving rise to bright green fluorescence at the site of degradation. Because in situ zymography requires the use of frozen sections, calcified tissues are problematic. However, an additional feature of the SCW arthritis model is the development of hepatic granulomatous disease (J Immunol; 1986; 137:2199-2209), and MMP9 reportedly plays a role in macrophage recruitment in the granulomas response to mycobacteria (Infect Immun; 2006; 74:6135-6144). Consequently, granulomatous livers from SCW-treated rats were assessed for active MMP9 by in situ zymography.
As described above, Female Lewis (LEW/N) rats, 5-6 weeks of age (80-100 g) were injected (i.p.) with saline or SCW PG-PS. On day 28, when the granulomatous response was well established, animals were sacrificed and livers were frozen in OCT cryo-sectioning medium and […] sections were cut on a Cryome HM 500 M cryotome and mounted on glass microscope slides. Sections were air dried briefly. MMP9 was confirmed as the source of the gelatinase activity in the liver by treating liver sections with monoclonal antibodies directed against the active site of the two major gelatinases MMP9 and MMP2. Liver sections overlain with 50 μL of 100 μg/mL neutralizing mouse monoclonal antibodies directed against MMP9 (Calbiochem, clone 6-6B), or MMP2 (Millipore, clone CA-4001), or with PBS for 1 hr at room temperature. Tissues were rinsed once with PBS, blotted, and briefly air dried and then overlain with DQ-gelatin (Invitrogen) dissolved to 1 mg/mL in deionized water and then diluted 1:10 in 1% wt/vol low gelling point agarose type VII (Sigma) in PBS. The sections were covered with coverslips, incubated in the dark at room temperature for 20 min, and imaged on an Olympus IX80 inverted microscope fitted with fluorescence optics, using SlideBook™ imaging software (Intelligent Imaging Innovations, Inc., Philadelphia, Pa.; version 5.0). Fluorescence intensity was determined (Table 8). When compared to a saline-treated rat, gelatinase activity was abundantly expressed in granulomatous liver sections obtained from a rat with SCW arthritis.
Next, liver in situ zymography was used to assess the relative presence of active MMP9 in rats dosed with vehicle vs. Compound-α. Female Lewis (LEW/N) rats, 5-6 weeks of age (80-100 g) were injected (i.p.) with saline or SCW PG-PS. Commencing on day 25, randomized groups of rats (n=3 rats/group) received vehicle or 20 or 50 mg/kg Compound-α BID by oral gavage. Vehicle consisted of an aqueous mixture containing 2% (v:v) N-methylpyrrolidone, 5% (v:v) glycerine, and 20% (w:v) captisol. Treatment continued daily through the morning of day 28. Four hrs after the AM dose on day 28, rats were sacrificed and livers assessed for active MMP9 by in situ zymography (Table 9). Gelatinase activity was increased markedly in SCW-induced rats, but activity was reduced by approximately 80% in animals treated with 50 mg/kg Compound-α.

T1 sequence (P50282 108-708): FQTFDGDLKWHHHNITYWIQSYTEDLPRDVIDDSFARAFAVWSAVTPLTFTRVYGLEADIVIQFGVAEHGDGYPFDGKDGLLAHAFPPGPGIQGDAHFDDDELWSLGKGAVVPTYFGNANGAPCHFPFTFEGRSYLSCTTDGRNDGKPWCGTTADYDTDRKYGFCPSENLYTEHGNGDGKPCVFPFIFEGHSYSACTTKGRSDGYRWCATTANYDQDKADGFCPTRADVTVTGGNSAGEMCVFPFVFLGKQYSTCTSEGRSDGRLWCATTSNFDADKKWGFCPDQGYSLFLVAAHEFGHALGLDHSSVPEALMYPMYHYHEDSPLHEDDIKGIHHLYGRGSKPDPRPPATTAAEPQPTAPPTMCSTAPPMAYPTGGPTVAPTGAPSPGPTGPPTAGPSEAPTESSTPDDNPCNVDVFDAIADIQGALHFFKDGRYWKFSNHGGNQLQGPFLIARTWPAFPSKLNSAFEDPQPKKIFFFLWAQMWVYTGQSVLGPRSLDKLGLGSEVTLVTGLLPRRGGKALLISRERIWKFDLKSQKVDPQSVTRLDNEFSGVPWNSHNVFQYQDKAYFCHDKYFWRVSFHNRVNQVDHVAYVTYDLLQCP

`Cc1nc(C)c(-c2csc(Nc3cc(S(N)(=O)=O)ccc3OC(C)C)n2)s1` [Compound-α, 3-(2′,4′-Dimethyl-[4,5′]bithiazolyl-2-ylamino)-4-isopropoxy-benzenesulfonamide.HBr] was tested, and the “Intensity (RLU × 10^6), Mean” value (20 mg/kg BID oral) was 55.2 RLU × 10^6, the “Intensity (RLU × 10^6), Rat 1” value (20 mg/kg BID oral) was 43.0 RLU × 10^6 and the “Intensity (RLU × 10^6), Rat 2” value (20 mg/kg BID oral) was 69.0 RLU × 10^6. For the same compound, the “Intensity (RLU × 10^6), Rat 3” value (20 mg/kg BID oral) was 53.7 RLU × 10^6, the “Reduction of liver gelatinase activity” value (50 mg/kg BID oral, Day 25-28) was “approximately 80%” and the “Intensity (RLU × 10^6), Mean” value (50 mg/kg BID oral) was 11.1 RLU × 10^6. The “Intensity (RLU × 10^6), Rat 1” value (50 mg/kg BID oral) was 3.2 RLU × 10^6, the “Intensity (RLU × 10^6), Rat 2” value (50 mg/kg BID oral) was 25.6 RLU × 10^6 and the “Intensity (RLU × 10^6), Rat 3” value (50 mg/kg BID oral) was 4.5 RLU × 10^6.
